The text below walks through data of patent EP4624471A1, “PKMYT1 INHIBITOR, PREPARATION METHOD THEREFOR, AND PHARMACEUTICAL COMPOSITION AND USE THEREOF” (Shanghai Qilu Pharmaceutical Research and Development …, priority 2022, dated 2024).

pIC50: −log10 of the molar value.

One assay deals with T1, PKMYT1 enzyme (Homo sapiens, UniProt Q99640).
T1 construct: purchased Thermo Scientific A33387
T1 sequence (Q99640 1-499): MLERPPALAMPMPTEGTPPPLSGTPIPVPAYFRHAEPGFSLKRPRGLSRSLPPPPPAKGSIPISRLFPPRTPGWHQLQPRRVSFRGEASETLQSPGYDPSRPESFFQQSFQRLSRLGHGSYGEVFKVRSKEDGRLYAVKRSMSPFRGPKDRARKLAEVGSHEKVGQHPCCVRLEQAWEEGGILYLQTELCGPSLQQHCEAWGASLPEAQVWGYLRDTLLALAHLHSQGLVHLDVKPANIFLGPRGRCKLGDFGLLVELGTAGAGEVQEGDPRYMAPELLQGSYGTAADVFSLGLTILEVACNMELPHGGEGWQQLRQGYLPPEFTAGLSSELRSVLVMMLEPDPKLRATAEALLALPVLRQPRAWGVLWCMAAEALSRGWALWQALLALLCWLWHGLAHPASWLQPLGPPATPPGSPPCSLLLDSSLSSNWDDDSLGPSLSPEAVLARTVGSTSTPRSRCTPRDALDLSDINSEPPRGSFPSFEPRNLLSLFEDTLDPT
In words: PKMYT1 enzyme inhibition activity, ADP-GLO method. The format is biochemical. To be noted: PKMYT1 enzyme 10 nM, ATP 5 µM, 37°C 90 minutes; read-out: ADP-GLO IC50.
As for `Cc1cc2c(C(N)=O)c(N)n(-c3c(C)c(O)cc(F)c3C)c2nc1-c1ccccc1` [Example 137], the pIC50 is 7.44.

Consider `Cc1ccc(O)c(C)c1-n1c(N)c(C(N)=O)c2cncnc21` [Example 45, 6-Amino-7-(3-hydroxy-2,6-dimethylphenyl)-7H-pyrrolo[2,3-d]pyrimidine-5-carboxamide], for which the pIC50 is 7.97.

With `Cc1c(O)cc(F)c(C)c1-n1c(N)c(C(N)=O)c2c3cnccc3c(C)cc21` [Example 208], the pIC50 is 8.34.

Take `CCc1cnc2c(c1)c(C(N)=O)c(N)n2-c1c(C)cc(F)c(O)c1C` [Example 140]: the pIC50 is 8.11.

As for `Cc1cc2c(C(N)=O)c(N)n(-c3c(C)c(O)cc(Cl)c3C)c2nc1C` [Example 48, 2-Amino-1-(3-chloro-5-hydroxy-2,6-dimethylphenyl)-5,6-dimethyl-1H-pyrrolo[2,3-b]nicotinamide], the pIC50 was 7.43.

For the compound `Cc1cc(F)c(O)c(C)c1-n1c(N)c(C(N)=O)c2cc(N3CCCC3)c(C)nc21` (atropisomer, axis not shown) [Example 162.1], the pIC50 was 8.04.

For `Cc1cc(F)c(O)c(C)c1-n1c(N)c(C(N)=O)c2cc(CC(C)C)c(C)nc21` (racemic) [Example 166], the pIC50 was 8.08.

In the case of `CCc1nc(C)nc2c1c(C(N)=O)c(N)n2-c1c(C)cc(F)c(O)c1C` [Example 67], the pIC50 is 7.26.

On to `Cc1cc(F)c(O)c(C)c1-n1c(N)c(C(N)=O)c2cc(C(F)(F)F)cnc21` (atropisomer, axis not shown) [Example 154.2], for which the negative-log IC50 (pIC50) was 8.29.

As for `Cc1cc(F)c(O)c(C)c1-n1c(N)c(C(N)=O)c2cc(CC(F)(F)F)c(C)nc21` [Example 174], the pIC50 is 8.33.

For the compound `Cc1nc(C2CC2)c2c(C(N)=O)c(N)n(-c3c(C)ccc(O)c3C)c2n1` (racemic) [Example 62], the pIC50 is 7.77.

For `Cc1cc2c(C(N)=O)c(N)n(-c3c(C)c(O)cc(F)c3C)c2nc1C(C)C` [Example 139], the pIC50 was 6.84.

For `Cc1ccc(O)c(C)c1-n1c(N)c(C(N)=O)c2cnc(C#CC(C)(C)F)nc21` [Example 27], the pIC50 was 8.15.

As to `Cc1cc(F)c(O)c(C)c1-n1c(N)c(C(N)=O)c2cc(Cl)c(C)nc21` (atropisomer, axis not shown) [Example 60.2], the pIC50 is 8.73.

Take `Cc1cc(F)c(O)c(C)c1-n1c(N)c(C(N)=O)c2c3c(cnc21)CCC3` (racemic) [Example 186]: the pIC50 is 8.13.

With `COc1cc2c(C(N)=O)c(N)n(-c3c(C)cc(F)c(O)c3C)c2nc1C` (atropisomer, axis not shown) [Example 158.1], the pIC50 was 8.12.

In the case of `COc1ccc(CNc2ncc3c(C(N)=O)c(N)n(-c4c(C)ccc(O)c4C)c3n2)cc1` [Example 15, 6-Amino-7-(3-hydroxy-2,6-dimethylphenyl)-2-((4-methoxybenzyl)amino)-7H-pyrrolo[2,3-d]pyrimidine-5-carboxamide], the pIC50 was 6.78.

Turning to `Cc1ccc(O)c(C)c1-n1c(N)c(C(N)=O)c2c(F)nc(C)c(F)c21` [Example 72], the pIC50 was 8.01.

Consider `[2H]C([2H])([2H])c1c(O)c(F)cc(C)c1-n1c(N)c(C(N)=O)c2cc(C(F)(F)F)c(C)nc21` (atropisomer, axis not shown) [Example 195.1], for which the pIC50 was 8.55.

`Cc1cc(F)c(O)c(C)c1-n1c(N)c(C(N)=O)c2cc(N(C)C)c(C)nc21` (racemic) [Example 169]: the pIC50 is 7.58.

Regarding `Cc1ccc(O)c(C)c1-n1c(N)c(C(N)=O)c2cnc(Nc3ccccc3)nc21` [Example 33, 6-Amino-7-(3-hydroxy-2,6-dimethylphenyl)-2-(phenylamino)-7H-pyrrolo[2,3-d]pyrimidine-5-carboxamide], the pIC50 was 7.95.

Take `COc1nc2c(cc1C)c(C(N)=O)c(N)n2-c1c(C)cc(F)c(O)c1C` [Example 167]: the pIC50 is 7.66.

For the compound `Cc1cc(F)c(O)c(C)c1-n1c(N)c(C(N)=O)c2cc(N3CCCC3)c(C)nc21` (racemic) [Example 162], the pIC50 is 7.84.

With `Cc1ccc(O)c(C)c1-n1c(N)c(C(N)=O)c2cnc(C3CCCCC3)nc21` [Example 10, 6-Amino-2-cyclohexyl-7-(3-hydroxy-2,6-dimethylphenyl)-7H-pyrrolo[2,3-d]pyrimidine-5-carboxamide], the pIC50 is 7.89.

Take `Cc1ccc(O)c(C)c1-n1c(N)c(C(N)=O)c2cnc(CCC3CC3)nc21` [Example 86]: the pIC50 is 8.26.

As to `C#Cc1ncc2c(C(N)=O)c(N)n(-c3c(C)ccc(O)c3C)c2n1` [Example 47, 6-Amino-2-ethynyl-7-(3-hydroxy-2,6-dimethylphenyl)-7H-pyrrolo[2,3-d]pyrimidine-5-carboxamide], the pIC50 is 7.89.

Consider `C=Cc1cnc2c(c1)c(C(N)=O)c(N)n2-c1c(C)cc(F)c(O)c1C` [Example 148], for which the negative-log IC50 (pIC50) is 8.14.

With `C=Cc1cc2c(C(N)=O)c(N)n(-c3c(C)cc(F)c(O)c3C)c2nc1C` (single isomer, unassigned) [Example 142.1], the pIC50 was 8.00.

For the compound `Cc1cc2c(C(N)=O)c(N)n(-c3c(C)cc(F)c(O)c3C)c2nc1C` [Example 23, 2-Amino-1-(4-fluoro-3-hydroxy-2,6-dimethylphenyl)-5,6-dimethyl-1H-pyrrolo[2,3-b]pyridine-3-carboxamide], the pIC50 is 8.07.

Turning to `Cc1cc(F)c(O)c(C)c1-n1c(N)c(C(N)=O)c2cc(C(F)F)c(C)nc21` [Example 204], the pIC50 is 7.72.

As for `Cc1ccc(O)c(C)c1-n1c(N)c(C(N)=O)c2cnc(C3CC3)nc21` [Example 41, 6-Amino-2-cyclopropyl-7-(3-hydroxy-2,6-dimethylphenyl)-7H-pyrrolo[2,3-d]pyrimidine-5-carboxamide], the pIC50 is 7.95.

Turning to `CNc1ncc2c(C(N)=O)c(N)n(-c3c(C)ccc(O)c3C)c2n1` [Example 85], the pIC50 was 8.17.

On to `Cc1ccc(O)c(C)c1-n1c(N)c(C(N)=O)c2cnc(N3CCOCC3)nc21` [Example 34, 6-Amino-7-(3-hydroxy-2,6-dimethylphenyl)-2-morpholino-7H-pyrrolo[2,3-d]pyrimidine-5-carboxamide], for which the pIC50 is 7.59.

Regarding `Cc1cc(F)c(O)c(C)c1-n1c(N)c(C(N)=O)c2cc(Cl)c(C)nc21` (racemic) [Example 60], the pIC50 was 8.37.

Turning to `Cc1cc(F)c(O)c(C)c1-n1c(N)c(C(N)=O)c2cc(N3CCC3)c(C)nc21` (racemic) [Example 173], the pIC50 was 8.11.

As for `[2H]C([2H])([2H])c1c(O)c(F)cc(C)c1-n1c(N)c(C(N)=O)c2cc(C(F)(F)F)c(C)nc21` (racemic) [Example 195], the pIC50 was 8.34.

Regarding `Cc1cc2c(C(N)=O)c(N)n(-c3c(C)cc(F)c(O)c3C)c2nc1F` [Example 73], the pIC50 is 7.87.

With `CCc1ncc2c(C(N)=O)c(N)n(-c3c(C)ccc(O)c3C)c2n1` [Example 8, 6-Amino-2-ethyl-7-(3-hydroxy-2,6-dimethylphenyl)-7H-pyrrolo[2,3-d]pyrimidine-5-carboxamide], the pIC50 is 7.98.

As for `Cc1ccc(O)c(C)c1-n1c(N)c(C(N)=O)c2cc(NC(=O)Nc3ccccc3)c(C)nc21` [Example 91], the pIC50 is 7.38.

With `Cc1ccc(O)c(C)c1-n1c(N)c(C(N)=O)c2cnc(C3=CCOCC3)nc21` [Example 16, 6-Amino-2-(3,6-dihydro-2H-pyran-4-yl)-7-(3-hydroxy-2,6-dimethylphenyl)-7H-pyrrolo[2,3-d]pyrimidine-5-carboxamide], the pIC50 is 7.93.

On to `Cc1cc2c(C(N)=O)c(N)n(-c3c(C)c(C)cc(O)c3C)c2nc1C` [Example 53, 2-Amino-1-(3-hydroxy-2,5,6-trimethylphenyl)-5,6-dimethyl-1H-pyrrolo[2,3-b]pyridine-3-carboxamide], for which the pIC50 was 6.71.

`Cc1ccc(O)c(C)c1-n1c(N)c(C(N)=O)c2cnc(N3CCCCC3)nc21` [Example 13, 6-Amino-7-(3-hydroxy-2,6-dimethylphenyl)-2-(piperidin-1-yl)-7H-pyrrolo[2,3-d]pyrimidine-5-carboxamide]: the pIC50 was 7.91.

For the compound `Cc1ccc(O)c(C)c1-n1c(N)c(C(N)=O)c2cnc(C3=CCCCC3)nc21` [Example 9, 6-Amino-2-(cyclohex-1-en-1-yl)-7-(3-hydroxy-2,6-dimethylphenyl)-7H-pyrrolo[2,3-d]pyrimidine-5-carboxamide], the negative-log IC50 (pIC50) was 8.04.

As to `Cc1cnc2c(c1)c(C(N)=O)c(N)n2-c1c(C)c(O)cc(F)c1C` [Example 89], the pIC50 is 8.52.

With `Cc1cc(F)c(O)c(C)c1-n1c(N)c(C(N)=O)c2cc(C(F)(F)F)cnc21` (racemic) [Example 154], the pIC50 is 7.86.

Turning to `CCN(CC)c1ncc2c(C(N)=O)c(N)n(-c3c(C)ccc(O)c3C)c2n1` [Example 17, 6-Amino-2-(diethylamino)-7-(3-hydroxy-2,6-dimethylphenyl)-7H-pyrrolo[2,3-d]pyrimidine-5-carboxamide], the pIC50 is 7.15.

As to `C=CCCc1cc2c(C(N)=O)c(N)n(-c3c(C)cc(F)c(O)c3C)c2nc1C` [Example 157], the pIC50 is 7.22.

Staying with this assay, now noted: read-out: ADP-GLO IC50; PKMYT1 enzyme 10 nM, ATP 5 µM, 37°C 90 minutes.
With `Cc1ccc(O)c(C)c1-n1c(N)c(C(N)=O)c2cc3c(ccn3C)nc21` [Example 206], the pIC50 is 8.18.

`COc1nc(C)nc2c1c(C(N)=O)c(N)n2-c1c(C)ccc(O)c1C` [Example 69]: the pIC50 was 7.81.
